Data: PubChem BioAssay (NCI)
Values joined by “and” are separate entries in the source; they are usually repeats but may differ in a detail not shown here. Identical values can stand only once.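 Grown in 96-well plates, cells were treated for 48 hours with each compound at five concentrations. Insufficient inhibition: endpoint recorded as highest concentration tested. At the TGI there is no net growth.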

Columns and labels:
Test in all cases: growth of human tumour cells (NCI), 48 h
[1] = system: LOX IMVI melanoma
[2] = system: OVCAR-8 ovarian
[3] = system: SF-268 CNS
[4] = system: PC-3 prostate
[5] = system: NCI-H226 lung
[6] = system: HCC-2998 colon
[7] = system: K-562 leukemia
[8] = system: EKVX NSCLC
[9] = system: COLO 205 colon
[10] = system: SF-295 CNS
[11] = system: KM12 colon
[12] = system: HCT-116 colon
[13] = system: IGROV1 ovarian
[14] = system: A549 NSCLC
[15] = system: DU-145 prostate
[16] = system: SK-OV-3 ovarian
[17] = system: SK-MEL-2 melanoma
[18] = system: SW-620 colon
[19] = system: ACHN renal
[20] = system: NCI-H460 lung
[21] = system: SR leukemia
[22] = system: NCI-H522 lung
[23] = system: BT-549 breast
[24] = system: UACC-257 melanoma
[25] = system: RPMI-8226 leukemia
[26] = system: HS 578T breast
[27] = system: CCRF-CEM leukemia
[28] = system: MDA-MB-231 breast
[29] = system: SNB-19 CNS
[30] = system: SN12C renal
[31] = system: HCT-15 colon
[32] = system: MDA-MB-435
[33] = system: TK-10 renal
[34] = system: SK-MEL-28 melanoma
[35] = system: MCF7 breast
[36] = system: HL-60(TB) leukemia
[37] = system: HT29 colon
[38] = system: NCI/ADR-RES ovarian
[39] = system: SNB-75 CNS
[40] = system: U251 CNS
[41] = system: OVCAR-5 ovarian
[42] = system: 786-0 renal
[43] = system: MOLT-4 leukemia
[44] = system: SK-MEL-5 melanoma
[45] = system: MDA-N
[46] = system: T-47D breast
[47] = system: A498 renal
[48] = system: SF-539 CNS
[49] = system: M14 melanoma
[50] = system: CAKI-1 renal
[51] = system: RXF 393 renal
[52] = system: NCI-H23 lung
[53] = system: OVCAR-4 ovarian
[54] = system: OVCAR-3 ovarian
[55] = system: HOP-92 NSCLC
[56] = system: UACC-62 melanoma
[57] = system: UO-31 renal
[58] = system: HOP-62 NSCLC
[59] = system: MALME-3M melanoma

For `Nc1cc(OCc2ccccc2)c(OCc2ccccc2)cc1C=O`, the TGI [1] was 77.2 µM, the TGI [2] was > 100 µM and the TGI [3] was > 100 µM. For the same compound, the TGI [4] was > 100 µM, the TGI [5] was > 100 µM and the TGI [6] was 34.5 µM. The TGI [7] was > 100 µM, the TGI [8] was > 100 µM and the TGI [9] was 77.3 µM. The TGI [10] was 70 µM, the TGI [11] was 92.2 µM and the TGI [12] was 96.8 µM. The TGI [13] was > 100 µM, the TGI [14] was > 100 µM and the TGI [15] was > 100 µM. For the same compound, the TGI [16] was > 100 µM, the TGI [17] was > 100 µM and the TGI [18] was > 100 µM. The TGI [19] was 93.5 µM, the TGI [20] was 52.8 µM and the TGI [21] was > 100 µM. For the same compound, the TGI [22] was 24.5 µM, the TGI [23] was 37.3 µM and the TGI [24] was > 100 µM. The TGI [25] was > 100 µM, the TGI [26] was > 100 µM and the TGI [27] was > 100 µM. For the same compound, the TGI [28] was > 100 µM, the TGI [29] was > 100 µM and the TGI [30] was > 100 µM. For the same compound, the TGI [31] was > 100 µM, the TGI [32] was > 100 µM and the TGI [33] was 67.8 µM. For the same compound, the TGI [34] was > 100 µM, the TGI [35] was > 100 µM and the TGI [36] was 40 µM. For the same compound, the TGI [37] was > 100 µM, the TGI [38] was > 100 µM and the TGI [39] was > 100 µM. For the same compound, the TGI [40] was 93.9 µM, the TGI [41] was > 100 µM and the TGI [42] was 55.4 µM. For the same compound, the TGI [43] was > 100 µM, the TGI [44] was 93.1 µM and the TGI [45] was > 100 µM. The TGI [46] was > 100 µM, the TGI [47] was 44.2 µM and the TGI [48] was 31.7 µM.
With `Brc1ccc(-c2ccc(-c3ccc(-c4ccc(Br)s4)s3)s2)s1` the TGI [1] was > 100 µM, the TGI [49] was > 100 µM and the TGI [2] was > 100 µM. For the same compound, the TGI [50] was > 100 µM, the TGI [3] was > 100 µM and the TGI [4] was > 100 µM. For the same compound, the TGI [51] was > 100 µM, the TGI [5] was > 100 µM and the TGI [52] was > 100 µM. The TGI [6] was > 100 µM, the TGI [7] was > 100 µM and the TGI [8] was > 100 µM. For the same compound, the TGI [9] was > 100 µM, the TGI [10] was > 100 µM and the TGI [11] was > 100 µM. For the same compound, the TGI [53] was > 100 µM, the TGI [12] was > 100 µM and the TGI [54] was > 100 µM. The TGI [13] was > 100 µM, the TGI [14] was > 100 µM and the TGI [15] was > 100 µM. For the same compound, the TGI [16] was > 100 µM, the TGI [18] was > 100 µM and the TGI [19] was > 100 µM. For the same compound, the TGI [20] was > 100 µM, the TGI [55] was > 100 µM and the TGI [21] was > 100 µM. For the same compound, the TGI [23] was > 100 µM, the TGI [24] was > 100 µM and the TGI [56] was > 100 µM. The TGI [25] was > 100 µM, the TGI [26] was > 100 µM and the TGI [27] was > 100 µM. For the same compound, the TGI [28] was > 100 µM, the TGI [30] was > 100 µM and the TGI [31] was > 100 µM. The TGI [32] was > 100 µM, the TGI [33] was > 100 µM and the TGI [34] was > 100 µM. For the same compound, the TGI [35] was > 100 µM, the TGI [57] was > 100 µM and the TGI [36] was > 100 µM. The TGI [37] was > 100 µM, the TGI [38] was > 100 µM and the TGI [39] was > 100 µM. The TGI [40] was > 100 µM, the TGI [41] was > 100 µM and the TGI [42] was > 100 µM. For the same compound, the TGI [43] was > 100 µM, the TGI [44] was > 100 µM and the TGI [45] was > 100 µM. For the same compound, the TGI [58] was > 100 µM, the TGI [46] was > 100 µM and the TGI [47] was > 100 µM. For the same compound, the TGI [48] was > 100 µM.
For `O=[N+]([O-])c1nccn1CCCN=c1c2ccccc2n(O)c2ccccc12`, the TGI [1] was > 100 µM, the TGI [49] was > 100 µM and the TGI [2] was > 100 µM. For the same compound, the TGI [50] was > 100 µM, the TGI [3] was > 100 µM and the TGI [4] was > 100 µM. For the same compound, the TGI [51] was > 100 µM, the TGI [5] was > 100 µM and the TGI [52] was > 100 µM. The TGI [7] was > 100 µM, the TGI [8] was > 100 µM and the TGI [9] was 55.6 µM. The TGI [10] was > 100 µM, the TGI [11] was > 100 µM and the TGI [53] was > 100 µM. The TGI [12] was > 100 µM, the TGI [54] was > 100 µM and the TGI [13] was > 100 µM. The TGI [14] was > 100 µM, the TGI [15] was > 100 µM and the TGI [16] was > 100 µM. The TGI [17] was > 100 µM, the TGI [18] was > 100 µM and the TGI [19] was > 100 µM. For the same compound, the TGI [20] was > 100 µM, the TGI [55] was > 100 µM and the TGI [21] was > 100 µM. For the same compound, the TGI [22] was > 100 µM, the TGI [23] was > 100 µM and the TGI [24] was > 100 µM. For the same compound, the TGI [56] was > 100 µM, the TGI [25] was > 100 µM and the TGI [26] was > 100 µM. The TGI [27] was > 100 µM, the TGI [28] was > 100 µM and the TGI [30] was > 100 µM. For the same compound, the TGI [31] was > 100 µM, the TGI [32] was > 100 µM and the TGI [33] was > 100 µM. For the same compound, the TGI [34] was > 100 µM, the TGI [35] was > 100 µM and the TGI [57] was > 100 µM. The TGI [36] was > 100 µM, the TGI [37] was > 100 µM and the TGI [38] was > 100 µM. For the same compound, the TGI [39] was > 100 µM, the TGI [40] was > 100 µM and the TGI [41] was > 100 µM. The TGI [42] was > 100 µM, the TGI [43] was > 100 µM and the TGI [59] was > 100 µM. For the same compound, the TGI [44] was > 100 µM, the TGI [45] was > 100 µM and the TGI [58] was > 100 µM. The TGI [46] was > 100 µM, the TGI [47] was > 100 µM and the TGI [48] was > 100 µM.
For `COC1OC(C(=O)CP(=O)(OC)OC)C(OCc2ccccc2)C(OCc2ccccc2)C1OCc1ccccc1` (stereo not drawn), the TGI [1] was 33.1 µM and 32.6 µM, the TGI [49] was 28.8 µM and 30.4 µM and the TGI [2] was 36.8 µM and 44.5 µM. For the same compound, the TGI [50] was 36 µM and 36.7 µM, the TGI [3] was 37.9 µM and 33.5 µM and the TGI [4] was 28.1 µM and 28.7 µM. For the same compound, the TGI [51] was 26.3 µM and 29.5 µM, the TGI [5] was 39.5 µM and 35.1 µM and the TGI [52] was 30.3 µM and 32.9 µM. For the same compound, the TGI [6] was 31.5 µM and 29.7 µM, the TGI [7] was 63.1 µM and > 100 µM and the TGI [8] was 29.4 µM and 32.2 µM. The TGI [9] was 32.7 µM and 33.5 µM, the TGI [10] was 28.1 µM and 30.3 µM and the TGI [11] was 36.6 µM and 35.7 µM. The TGI [53] was 28.4 µM and 36.7 µM, the TGI [12] was 29 µM and 30.2 µM and the TGI [54] was 30.3 µM and 28.7 µM. For the same compound, the TGI [13] was 35.9 µM and 35.4 µM, the TGI [14] was 31.2 µM and 31.9 µM and the TGI [15] was 31.3 µM and 33.5 µM. For the same compound, the TGI [16] was 32.7 µM and 32.6 µM, the TGI [17] was 30.7 µM and 31.3 µM and the TGI [18] was > 100 µM and 58 µM. For the same compound, the TGI [19] was 29.4 µM and 29.9 µM, the TGI [20] was 31.1 µM and 29.4 µM and the TGI [55] was 37.1 µM and 34.7 µM. For the same compound, the TGI [21] was 39.1 µM and 65.7 µM, the TGI [22] was 29.5 µM and 32.2 µM and the TGI [23] was 32 µM and 33.8 µM. For the same compound, the TGI [24] was 29.3 µM and 30.1 µM, the TGI [56] was 26.6 µM and 28 µM and the TGI [26] was 63.4 µM and 74.8 µM. For the same compound, the TGI [27] was > 100 µM and 96.3 µM, the TGI [28] was 31.7 µM and 29.9 µM and the TGI [29] was 29.7 µM and 30.3 µM. For the same compound, the TGI [30] was 30.1 µM and 30 µM, the TGI [31] was 33.4 µM and 36.1 µM and the TGI [32] was 31.8 µM and 35.9 µM. For the same compound, the TGI [33] was 30.9 µM and 33.9 µM, the TGI [34] was 40 µM and 33.2 µM and the TGI [35] was 30.5 µM. The TGI [57] was 30.9 µM and 23.5 µM, the TGI [36] was 59.4 µM and 47 µM and the TGI [37] was 30.6 µM and 31.7 µM. The TGI [38] was 42.6 µM and 46 µM, the TGI [39] was 29.9 µM and 30.6 µM and the TGI [40] was 29 µM and 30.3 µM. For the same compound, the TGI [41] was 29.2 µM and 31.8 µM, the TGI [42] was 31.3 µM and 31.4 µM and the TGI [43] was 32.7 µM and 50.3 µM. For the same compound, the TGI [59] was 32.4 µM and 34.5 µM, the TGI [44] was 28.6 µM and 28.7 µM and the TGI [45] was 29.8 µM and 30.8 µM. The TGI [58] was 32 µM and 32.5 µM, the TGI [46] was 39.6 µM and 43.7 µM and the TGI [47] was 27.1 µM. The TGI [48] was 33 µM and 31.9 µM.
